Measurements published in patent US4395553A, “Chemical compounds” (Bristol-Myers Company, priority 1982, dated 1983).

Legend:
[1] = cited from earlier work
[2] = test system: H2-receptor; conditions: cited from earlier work; for potency / effectiveness as H2-antagonist versus other H2-antagonist: compared with burimamide or metiamide
[3] = test system: gastric acid secretion; assay: Gastric Antisecretory Activity in the Heidenhain Pouch Dog; type: in vivo
Protocol: Prior to surgery, hematology and blood chemistry profiles are obtained and an assessment made as to the general health of selected female dogs. Dogs are vaccinated with Tissue Vax 5 (DHLP--Pitman-Moore) and housed in general animal quarters for four weeks' observation so incipient diseases may become apparent. Dogs are fasted with water ad libitum 24 hours prior to surgery.
Anesthesia is induced with Sodium Pentothal (Abbott) 25-30 mg/kg iv. Subsequent anesthesia is maintained with methoxyflurane (Pitman-Moore). A mid-line linea alba incision from xiphoid to umbilicus provides good exposure and ease of closure. The stomach is pulled up into the operative field, the greater curvature stretched out at multiple points and clamps placed along the selected line of incision. The pouch is made from the corpus of the stomach so that true parietal cell juice is obtained. About 30% of the corpus volume is resected. The cannula is made of light-weight,biologically-inert material such as nylon or Delrin with dimensions and attachments after DeVito and Harkins [J. Appl. Physiol., 14, 138 (1959)]. Post operatively, dogs are medicated with antibiotics and an analgesic. They are allowed 2-3 months for recovery. Experiments are carried out in the following way: Dogs are fasted overnight (~18 hours) with water ad libitum prior to each experiment. The dogs are placed in a sling and a saphenous vein cannulated for drug administration. Histamine as the base (100 μg/kg/hr) and chlorpheniramine maleate (0.25 mg/kg/hr) are infused continuously (in a volume of 6 ml/hr) with a Harvard infusion pump.
Ninety minutes' infusion are allowed for the dogs to reach a steady state of acid output. At this time the drug or normal saline (control) is administered concomitantly with the secretagogue in a volume of 0.5 ml/kg over a 30 second period. When oral studies are to be carried out, the drug is administered via gastric gavage in a volume of 5 ml/kg. Infusion of the secretagogue is continued and 15 minute samples of the gastric juice are taken for 4.5 hours. Each sample is measured to the nearest 0.5 ml and titratable acidity is determined by titrating a 1 ml sample to pH 7.0 with 0.2 N NaOH, using an Autoburet and an electrometric pH meter (Radiometer).Titratable acid output is calculated in microequivalents by multiplying the volume in milliliters by the acid concentration in milliequivalents per liter.
Results are expressed as percent inhibition relative to control readings. Dose response curves are constructed and ED50 values are calculated by regression analyses. From 3 to 5 dogs are used at each dose level and a minimum of three dosage levels are utilized for determination of a dose response curve.

[4] = test system: agranulocytosis; conditions: in vivo; cited from earlier work
[5] = test system: peptic ulcer disease; conditions: clinical evaluation; cited from earlier work
[6] = test system: gastric acid secretion; assay: Gastric Antisecretory Activity in the Gastric Fistula Rat; type: in vivo, rat (male Long Evans); conditions: sc; for ED50: read-out: ED50 sc
Protocol: Male Long Evans rats weighing about 240-260 grams at the time of cannula implantation are used. […] The fistula components are designed and the operative procedure is carried out exactly as described in the above reference. Post operatively the animals are individually housed in solid bottom cages with sawdust and are allowed food and water ad libitum throughout the entire recovery period. Animals are not used for test purposes for at least 15 days after the operative procedure. The animals are fasted but allowed water ad libitum for 20 hours before the testing procedure is to begin. […] The catheter is then screwed into the cannula in place of the plugging screw and the rat is placed in a clear plastic rectangular cage measuring 40 cm long, 15 cm wide and 13 cm high. The bottom of the cage has a slit approximately 1.5 cm wide and 25 cm long running down the center to accommodate the catheter which hangs through it. In this way the rat is not restricted and can move freely about the cage during collection periods. The remainder of the assay is carried out as described by Ridley et al. [Research Comm. Chem. Path. […] Gastric secretions collected during the first hour after washing the stomach are discarded as they may be contaminated. For oral evaluation, the catheter is then removed from the cannula and replaced with the plugging screw. […] After this time the plugging screw is removed and replaced with a catheter to which a small plastic vial has been attached to collect the gastric secretions. A two hour sample is collected (this represents the control secretion), the catheter removed and replaced with the plugging screw. […] Forty-five minutes later the plugging screw is again removed, replaced with the catheter attached to a small plastic vial and another 2 hour sample is collected. The secretions in the second sample are compared to those of the control sample in order to determine the effects of the test drug. […] Titratable acid output is calculated in microequivalents by multiplying the volume in milliliters by the acid concentration in milliequivalents per liter. Results are expressed as percent inhibition relative to control readings. Dose response curves are constructed and ED50 values are calculated by regression analyses. At least three rats are used at each dosage level and a minimum of three dosage levels are utilized for determination of a dose response curve.

SMILES: CNC(=S)NCCCCc1cnc[nH]1 [Burimamide]
- oral absorption [1]: oral absorption is poor
- inhibition of gastric secretion / clinical effectiveness ([2]; in animals and man): inhibits gastric secretion in animals and man

SMILES: CNC(=NC#N)NCCSCc1nc[nH]c1C [Cimetidine]
- ED50 ([3]; Canis lupus familiaris, iv): 2.18 µmol/kg
- ED50 ([3]; Canis lupus familiaris, po): ~3.3 µmol/kg
- ED50 ([3]; oral): 3.29 µmol/kg
- toxicity (agranulocytosis) [4]: without producing agranulocytosis
- therapeutic effect in treatment of peptic ulcer disease [5]: effective therapeutic agent in the treatment of peptic ulcer disease
- potency / effectiveness as H2-antagonist versus other H2-antagonist [2]: as effective an H2 -antagonist as metiamide
- ED50 ([6]; Rattus norvegicus): 3.8 µmol/kg

SMILES: Nc1c(NCCCOc2cccc(CN3CCCCC3)c2)c(=O)c1=O [Example 1, 1-Amino-2-[3-(3-piperidinomethylphenoxy)propylamino]cyclobutene-3,4-dione]
- ED50 ([3]; Canis lupus familiaris, oral, read-out: ED50): 0.175 µmol/kg
- Potency Ratio (cimetidine = 1.0) ([3]; iv): 91
- Potency Ratio (cimetidine = 1.0) ([3]; oral): 19
- Potency Ratio (cimetidine = 1.0) ([6]; Gastric Fistula Rat): 130
- ED50 ([6]; Gastric Fistula Rat): 0.029 µmol/kg

SMILES: CN(C)Cc1ccc(CSCCNc2c(N)c(=O)c2=O)o1 [Example 2, 1-Amino-2-{2-[(5-dimethylaminomethyl-2-furyl)methylthio]ethylamino}cyclobutene-3,4-dione]
- Potency Ratio (cimetidine = 1.0) ([6]; Gastric Fistula Rat): ~ 2
- ED50 ([6]; Gastric Fistula Rat): ~2 µmol/kg

SMILES: CNC(=S)NCCSCc1nc[nH]c1C [Metiamide]
- toxicity (agranulocytosis) [4]: toxicity (agranulocytosis)
- potency / effectiveness as H2-antagonist versus other H2-antagonist [2]: more potent than burimamide
- oral activity in man ([2]; oral, man): orally active in man
